Read-outs that look alike come from different tables or passages of the source.

The subject of one data set is blood glucose. As to the kind of experiment: Blood glucose after buccal bilayer tablet, double-blind placebo-controlled crossover. Conditions: 400 μg buccal bilayer tablet, fasting healthy volunteers. The source says: This example describes a double-blind, placebo-controlled, crossover comparison with random assignment to treatment sequence. […] Inclusion criteria for the volunteers were normal glucose tolerance, weight within 22<BMI<26, informed consent to participate in the study, and age between 20 and 60 years. […]
Subject numbers were allotted to the subjects in the order in which they were enrolled in the study. The number allotted to each subject determined the treatment sequence received. […]
Subjects were instructed to fast the night before a treatment. […] Standard safety variables were determined under fasting conditions before each experiment. Blood glucose was monitored frequently and glucose infusion was available in case of hypoglycemia (<2.5 mmol/L). […]
(§1) Blood samples were taken for pharmacokinetic analysis 10 minutes before application of the drug, and at 5, 10, 15, 20, 25, 30, 40, 50, 60, 75, 90, 120, 150, 180, 210, 240, and 270 minutes and 6 and 8 hours after application of the drug. […] The peptide content of bilayer tablet samples was also analyzed by HPLC. […]

A short description of the next data set: clinical.
Excerpt: This example describes a double-blind, placebo-controlled, crossover comparison with random assignment to treatment sequence. […] Inclusion criteria for the volunteers were normal glucose tolerance, weight within 22<BMI<26, informed consent to participate in the study, and age between 20 and 60 years. Exclusion criteria were impaired glucose tolerance (2-hour glucose tolerance test; OGTT), gastrointestinal symptoms, ongoing medication or illness, acute infection, abnormal laboratory variables (hemoglobin, hematocrit, leucocytes, creatinine, bilirubin, calcium, potassium, sodium, alkaline phosphatase, gamma-GT, SGOT, SGPT, cholesterol, and triglycerides), and blood pressure greater than 185 mmHg systolic and/or 90 mmHg diastolic.
Subject numbers were allotted to the subjects in the order in which they were enrolled in the study. The number allotted to each subject determined the treatment sequence received. Subjects receiving treatment sequence 1 were treated with drug followed by placebo, and subjects receiving treatment sequence 2 were treated with placebo followed by drug.
Subjects were instructed to fast the night before a treatment. At the clinic, the subjects were given either a drug-containing bilayer tablet or placebo. […] Standard safety variables were determined under fasting conditions before each experiment. Blood glucose was monitored frequently and glucose infusion was available in case of hypoglycemia (<2.5 mmol/L). […]
as §1
The data summarized in FIG. 7 were analyzed by AUC to provide an estimate of relative bioavailability by buccal administration as compared to subcutaneous administration.

Data set [1] is described as follows: Published subcutaneous administration of GLP-1 to fasting subjects (Nauck, FIG. 8). The format is in vivo, human. The text has this:
A study by M. A. Nauck of subcutaneous administration of GLP-1 to fasting subjects illustrates changes in the pharmocokinetics with dose (FIG. 8). This could be due to changes in bioavailability with dose, changes in clearance with dose, or a combination of both effects.

The conditions of data set [2]: intravenous infusion, fasting individuals, published data; cited from earlier work.
Where [3] appears, read: after administration, 400 μg buccal bilayer tablet.

In the case of `CC[C@H](C)[C@H](NC(=O)[C@H](Cc1ccccc1)NC(=O)[C@H](CCC(=O)O)NC(=O)[C@H](CCCCN)NC(=O)[C@H](C)NC(=O)[C@H](C)NC(=O)[C@H](CCC(N)=O)NC(=O)CNC(=O)[C@H](CCC(=O)O)NC(=O)[C@H](CC(C)C)NC(=O)[C@H](Cc1ccc(O)cc1)NC(=O)[C@H](CO)NC(=O)[C@H](CO)NC(=O)[C@@H](NC(=O)[C@H](CC(=O)O)NC(=O)[C@H](CO)NC(=O)[C@@H](NC(=O)[C@H](Cc1ccccc1)NC(=O)[C@@H](NC(=O)CNC(=O)[C@H](CCC(=O)O)NC(=O)[C@H](C)NC(=O)[C@@H](N)Cc1c[nH]cn1)[C@@H](C)O)[C@@H](C)O)C(C)C)C(=O)N[C@@H](C)C(=O)N[C@@H](Cc1c[nH]c2ccccc12)C(=O)N[C@@H](CC(C)C)C(=O)N[C@H](C(=O)N[C@@H](CCCCN)C(=O)NCC(=O)N[C@@H](CCCNC(=N)N)C(N)=O)C(C)C` [GLP-1(7-36)amide], the hypoglycemia entry in the data set on blood glucose is “does not result in hypoglycemia”. In addition, in the data set “clinical” (setting [3]), the “time of onset of sharp rise of plasma GLP-1(7-36)amide level” value was not above 5 min and the “time until which elevated GLP-1(7-36)amide levels remain in the blood” value is on record as “about 150 minutes”. This molecule also came in with a F rel in the data set “clinical” (human, plasma, 400 ug) of 27%.

In the case of “GLP-1: GLP-1 given intravenously (7-37 and 7-36 amide) or subcutaneously to fasting subjects in published studies used for comparison”, the “bioavailability by subcutaneous administration relative to intravenous administration” value in data set [1] (subcutaneous) was 38%. Moreover, the clearance result is “about 40 ml/min/kg” in data set [1] (subcutaneous administration, regression analysis of all results) and approximately 0.9 L/h/kg in data set [2].
